Values after ≈ are worked out from the molar mass of the structure shown.
Columns and labels:
[1] = target: T1, Carnitine O-palmitoyltransferase 1, liver isoform (Rattus norvegicus, UniProt P32198); test: (§1) SUPPLEMENTARY: Inhibition of Carnitine palmitoyltransferase 1, liver isoform
T1 sequence (P32198 whole entry): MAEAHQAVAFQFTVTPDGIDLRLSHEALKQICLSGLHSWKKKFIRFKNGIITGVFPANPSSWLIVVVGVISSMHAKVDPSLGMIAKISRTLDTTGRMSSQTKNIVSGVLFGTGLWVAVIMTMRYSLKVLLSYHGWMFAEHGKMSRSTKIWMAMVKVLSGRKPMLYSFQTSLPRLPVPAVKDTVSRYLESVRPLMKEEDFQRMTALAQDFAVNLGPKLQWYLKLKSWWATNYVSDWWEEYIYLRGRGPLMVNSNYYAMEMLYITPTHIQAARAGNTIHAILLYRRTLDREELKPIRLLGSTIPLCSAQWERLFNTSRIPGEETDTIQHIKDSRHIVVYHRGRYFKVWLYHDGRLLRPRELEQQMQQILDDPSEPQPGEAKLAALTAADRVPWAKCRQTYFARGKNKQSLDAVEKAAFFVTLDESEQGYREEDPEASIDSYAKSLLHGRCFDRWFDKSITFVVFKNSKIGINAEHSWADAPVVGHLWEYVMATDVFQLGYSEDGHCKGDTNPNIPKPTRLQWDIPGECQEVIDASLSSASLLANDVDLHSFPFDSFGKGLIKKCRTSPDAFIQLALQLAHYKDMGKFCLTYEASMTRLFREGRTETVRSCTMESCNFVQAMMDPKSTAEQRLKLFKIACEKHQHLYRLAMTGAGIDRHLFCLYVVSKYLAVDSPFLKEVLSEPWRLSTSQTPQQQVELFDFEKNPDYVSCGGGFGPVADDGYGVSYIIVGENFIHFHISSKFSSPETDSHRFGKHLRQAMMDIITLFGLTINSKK

[2] = target: T2, Carnitine O-palmitoyltransferase 1, liver isoform (Homo sapiens, UniProt P50416); test: as §1
T2 sequence (P50416 whole entry): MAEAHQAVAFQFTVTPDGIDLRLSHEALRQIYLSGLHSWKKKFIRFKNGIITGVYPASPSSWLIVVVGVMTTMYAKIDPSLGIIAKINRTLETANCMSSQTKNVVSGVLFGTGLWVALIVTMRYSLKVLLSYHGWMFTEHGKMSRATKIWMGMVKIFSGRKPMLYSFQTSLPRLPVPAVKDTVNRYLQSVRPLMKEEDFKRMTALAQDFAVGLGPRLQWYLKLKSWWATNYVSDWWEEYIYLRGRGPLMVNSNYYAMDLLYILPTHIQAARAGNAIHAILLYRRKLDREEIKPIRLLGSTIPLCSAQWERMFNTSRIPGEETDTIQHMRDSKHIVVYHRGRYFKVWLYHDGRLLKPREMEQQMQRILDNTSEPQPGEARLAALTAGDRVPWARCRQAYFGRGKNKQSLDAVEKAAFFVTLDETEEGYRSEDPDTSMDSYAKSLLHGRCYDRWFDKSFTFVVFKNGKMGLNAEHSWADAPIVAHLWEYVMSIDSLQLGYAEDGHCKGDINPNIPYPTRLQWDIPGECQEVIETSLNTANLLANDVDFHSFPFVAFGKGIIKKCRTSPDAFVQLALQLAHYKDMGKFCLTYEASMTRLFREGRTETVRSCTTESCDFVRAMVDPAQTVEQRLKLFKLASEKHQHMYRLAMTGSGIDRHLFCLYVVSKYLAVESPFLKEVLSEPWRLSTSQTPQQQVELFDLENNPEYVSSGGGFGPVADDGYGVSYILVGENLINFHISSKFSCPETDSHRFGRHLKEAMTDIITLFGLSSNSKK

[3] = SUPPLEMENTARY: PAMPA permeability assay; format: physicochemical; conditions: read-out: Permeability
[4] = target: T3, Carnitine O-palmitoyltransferase 2, mitochondrial (Rattus norvegicus, UniProt P18886); test: (§2) SUPPLEMENTARY: Inhibition of Carnitine palmitoyltransferase 2
T3 sequence (P18886 whole entry): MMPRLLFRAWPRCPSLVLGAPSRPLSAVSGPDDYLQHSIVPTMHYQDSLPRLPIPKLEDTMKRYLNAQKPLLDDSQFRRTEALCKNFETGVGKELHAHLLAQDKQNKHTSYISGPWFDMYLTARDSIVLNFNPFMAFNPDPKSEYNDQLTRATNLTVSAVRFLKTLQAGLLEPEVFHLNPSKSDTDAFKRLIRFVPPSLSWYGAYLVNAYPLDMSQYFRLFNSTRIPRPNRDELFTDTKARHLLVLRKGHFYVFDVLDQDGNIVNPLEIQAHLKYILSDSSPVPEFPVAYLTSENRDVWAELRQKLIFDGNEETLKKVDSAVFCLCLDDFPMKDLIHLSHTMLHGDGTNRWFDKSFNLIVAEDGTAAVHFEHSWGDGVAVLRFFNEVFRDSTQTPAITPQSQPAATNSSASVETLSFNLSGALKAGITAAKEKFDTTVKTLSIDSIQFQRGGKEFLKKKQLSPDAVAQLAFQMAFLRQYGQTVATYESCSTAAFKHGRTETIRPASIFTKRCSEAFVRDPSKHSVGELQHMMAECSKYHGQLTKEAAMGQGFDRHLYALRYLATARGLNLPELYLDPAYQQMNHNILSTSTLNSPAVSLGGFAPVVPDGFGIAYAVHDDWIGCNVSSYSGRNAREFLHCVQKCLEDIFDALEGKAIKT

[5] = target: T4, Carnitine O-palmitoyltransferase 2, mitochondrial (Homo sapiens, UniProt P23786); test: as §2
T4 sequence (P23786 whole entry): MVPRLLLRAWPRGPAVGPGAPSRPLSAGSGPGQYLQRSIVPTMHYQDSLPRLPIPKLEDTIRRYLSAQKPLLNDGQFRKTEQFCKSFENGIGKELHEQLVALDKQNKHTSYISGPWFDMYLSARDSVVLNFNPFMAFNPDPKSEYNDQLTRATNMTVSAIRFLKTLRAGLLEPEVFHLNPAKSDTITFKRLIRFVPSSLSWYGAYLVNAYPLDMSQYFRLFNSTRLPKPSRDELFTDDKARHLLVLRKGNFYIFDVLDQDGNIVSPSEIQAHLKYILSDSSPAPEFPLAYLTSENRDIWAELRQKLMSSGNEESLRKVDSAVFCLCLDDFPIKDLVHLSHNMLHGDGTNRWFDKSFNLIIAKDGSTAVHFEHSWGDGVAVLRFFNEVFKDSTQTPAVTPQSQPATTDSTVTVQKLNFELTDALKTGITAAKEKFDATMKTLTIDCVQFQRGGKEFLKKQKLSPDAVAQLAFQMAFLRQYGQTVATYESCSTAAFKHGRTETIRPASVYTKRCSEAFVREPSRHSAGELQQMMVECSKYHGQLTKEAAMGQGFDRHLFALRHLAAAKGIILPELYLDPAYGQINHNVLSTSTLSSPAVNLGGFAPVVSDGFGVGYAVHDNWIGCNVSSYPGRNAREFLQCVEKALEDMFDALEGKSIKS

[6] = target: T5, Carnitine O-palmitoyltransferase 1, muscle isoform (Homo sapiens, UniProt Q92523); test: SUPPLEMENTARY: Inhibition of Carnitine palmitoyltransferase 1, muscle isoform; design: species or system Muscle tissue
T5 sequence (Q92523 whole entry): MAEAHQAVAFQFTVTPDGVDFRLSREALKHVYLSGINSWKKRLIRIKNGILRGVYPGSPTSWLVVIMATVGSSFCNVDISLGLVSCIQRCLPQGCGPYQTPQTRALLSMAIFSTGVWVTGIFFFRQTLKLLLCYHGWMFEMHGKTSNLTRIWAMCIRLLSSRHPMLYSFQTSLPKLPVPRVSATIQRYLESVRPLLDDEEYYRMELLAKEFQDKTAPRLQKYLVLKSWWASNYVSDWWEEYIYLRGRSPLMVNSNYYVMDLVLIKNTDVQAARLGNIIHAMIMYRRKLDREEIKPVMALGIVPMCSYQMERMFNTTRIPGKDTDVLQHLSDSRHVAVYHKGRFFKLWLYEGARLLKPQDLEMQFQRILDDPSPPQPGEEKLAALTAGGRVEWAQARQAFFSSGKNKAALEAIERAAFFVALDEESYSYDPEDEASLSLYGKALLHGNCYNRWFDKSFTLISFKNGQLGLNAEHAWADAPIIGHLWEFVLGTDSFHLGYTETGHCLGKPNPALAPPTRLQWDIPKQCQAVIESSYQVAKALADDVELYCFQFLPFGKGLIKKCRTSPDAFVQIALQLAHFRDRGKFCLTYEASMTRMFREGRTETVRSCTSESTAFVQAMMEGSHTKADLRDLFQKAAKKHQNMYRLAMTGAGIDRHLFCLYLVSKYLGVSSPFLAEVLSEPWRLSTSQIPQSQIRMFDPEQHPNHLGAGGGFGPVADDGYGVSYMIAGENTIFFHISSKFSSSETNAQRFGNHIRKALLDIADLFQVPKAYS

[7] = SUPPLEMENTARY: Lyophilisation Solubility Assay (LYSA); format: physicochemical; conditions: read-out: Kinetic_solubility
[8] = SUPPLEMENTARY: Lipophilicity (log D) Determination by high-throughput shake-flask; format: physicochemical; conditions: octanol/water

SMILES	IC50 [1] [nM]	IC50 [2] [nM]	Papp [3] [×10⁻⁶ cm/s]	IC50 [4] [nM]	IC50 [5] [nM]	IC50 [6] [nM]	solubility kinetic [7] [µg/mL]	logD [8]
O=C1Cc2cc(-c3noc([C@H]4CNCCN4C(=O)COc4ccccc4)n3)ccc2N1	306	105	2.77	93500	58900	> 100000	312 (≈ 745 µM)	1.09
COc1ccc(Cl)cc1S(=O)(=O)N(c1cc(C(=O)Nc2ncc(CC(=O)O)s2)cc2c1OCO2)C(C)C	374	163	3.53	> 100000	38300	820	109 (≈ 192 µM)	2.84
CS(=O)(=O)Nc1cccc(-c2n[nH]c([C@H]3CCCCN3C(=O)COc3ccccc3)n2)c1	175	146	2.56	82800	23900	> 100000	103 (≈ 226 µM)	2.27
COc1ccc(C)cc1S(=O)(=O)N1CCc2ccc(C(=O)Nc3ccc(CC(=O)O)cc3)cc21	174	237	2.21	> 100000	> 100000	2210	93 (≈ 194 µM)	0.11
O=C(COc1ccccc1)N1CCCC[C@@H]1c1noc(-c2cccc(-n3cc[nH]c3=O)c2)n1	458	59.9	7.36	69700	29700	83300	70 (≈ 157 µM)	2.66
Cc1cc(-c2nc([C@H]3CCCCN3C(=O)COc3ccccc3)no2)n(C)n1	330	228	6.42	> 100000	16300	> 100000	55 (≈ 144 µM)	3.13
CC(C)C(=O)Nc1cccc(-c2n[nH]c([C@H]3CCCCN3C(=O)COc3ccccc3)n2)c1	692	72.1	2.6	24100	36700	> 100000	29 (≈ 64.8 µM)	3.32

The next compounds have a lower IC50 [1] than those just listed; values first:

IC50 [1] [nM]	IC50 [2] [nM]	Papp [3] [×10⁻⁶ cm/s]	IC50 [4] [nM]	IC50 [5] [nM]	IC50 [6] [nM]	solubility kinetic [7] [µg/mL]	logD [8]	SMILES
122	133	2.06	27100	17800	1750	13 (≈ 25.1 µM)	0.26	COc1ccc(Cl)cc1S(=O)(=O)N(C)c1cc(C(=O)Nc2ccc(C(=O)O)cc2)cc2c1OCO2
65.4	80.1	2.77	> 100000	40900	844	195 (≈ 372 µM)	0.58	COc1ccc(Cl)cc1S(=O)(=O)N1COc2c(C)cc(C(=O)Nc3nc(CC(=O)O)cs3)cc21
61.6	121	0.95	82800	49000	94200	62 (≈ 143 µM)	2.57	O=C1COc2ccc(-c3n[nH]c([C@H]4CCCCN4C(=O)COc4ccccc4)n3)cc2N1
148	200	0.18	22900	4470	2520	6 (≈ 13.2 µM)	2.21	COc1ccc(Cl)cc1Sc1c[nH]c2ccc(C(=O)Nc3ccc(C(=O)O)cc3)cc12
136	49.1	3.59	89900	18800	> 100000	18 (≈ 43.3 µM)	2.9	O=C(COc1ccccc1)N1CCCC[C@@H]1c1noc(-c2cnnc3ccccc23)n1
131	124	3.58	> 100000	> 100000	622	108 (≈ 190 µM)	2.72	CCCN(c1cc(C(=O)Nc2nc(CC(=O)O)cs2)cc2c1OCO2)S(=O)(=O)c1cc(Cl)ccc1OC
34.8	91.1	1.03	> 100000	> 100000	2760	48 (≈ 96.4 µM)	2.7	COc1ccc(Cl)cc1CN1C(=O)C2(CC2)c2ccc(C(=O)Nc3nc(CC(=O)O)cs3)cc21

— ChEMBL document CHEMBL3431459, “Roche carnitine palmitoyltransferase modulator screening data (supplementary data associated with the publication CHEMBL2216752)”
